{"source": "patent US6514967B1", "about": "(priority 1997, dated 2003)", "key": {"[1]": {"assay": "Chemical test of capture of OH• radicals (deoxyribose competition)", "type": "biochemical", "settings": "rate constant of reaction of the competitor with OH•; competition with 2-deoxyribose, UV at 532 nm", "method": "A) Chemical test of capture of OH^• radicals:\n(Free Rad. Res. Comms., Vol. 14, Nos. 5-6, pp. 363-372)\n[…] of buffer (30 mM Na2HPO4.7H2O, 40 mM NaCl, 0.1 mM EDTA), 125 ml of deoxyribose at 2.10^−3 mM and 125 ml of 4-times concentrated solution of radical inhibitor (final concentration from 0 to 0.5 mM) were placed in glass haemolysis tubes cooled on an ice bath. […] of FeSO4 at 10^−3 mM (in water) is added at time 0. After 15 min of incubation the reaction is stopped with 250 ml of trichloroacetic acid at 3%, to which is added 250 ml of solution of thiobarbituric acid at 1.5% (in water). The tubes are kept at 100° C. for 10 min then cooled for detection with UV at 532 nm. The linear relation A0/A=1+ks/dkr [(competitor)/(2-deoxyribose)] was used, where A0 and A denote the absorbances in the absence and in the presence of competitor, ks is the rate constant of reaction of the competitor with OH• and kdr=1.9*10^9 M^−1 sec^−1 is the rate constant of reaction of 2-deoxyribose with OH•. Thus ks is equal to the gradient of the straight line A0/A f((competitor)/(2-deoxyribose)) multiplied by kdr."}, "astrocytes": {"test_system": "astrocytes", "assay": "Recapture of glutamate by cultures of astrocytes, radicals generated by xanthine/xanthine oxidase (X/XO)", "type": "cell-based, rats", "method": "B) Procedure with cultures of astrocytes and generation of radicals by the xanthine/xanthine oxidase (X/XO) pair\n400 μl of D-lysine at 25 μg/ml (9 ml of D-lysine at 100 μg per ml of borate buffer (0.1M pH 8.4)+27 ml of water) is placed in each well of 24-well culture plates. The wells are left in the stove (5% CO2, 37° C.) over night. Each well is rinsed with 2 times 750 μl of Hanks before receiving the culture medium. 3 lateral demi cortices are taken from rats aged 1 to 2 days. (The hippocampus, the striatum and the meninges are removed). The demi cortices are placed in 2 ml of trypsin-EDTA then put in the stove for 30 min. The action of the trypsin is stopped with 10% of decomplemented foetal calf serum (200 μl). The serum and the trypsin are removed then the cells are dissociated with a pipette in 10 ml of medium (MEM 225 ml+FCS-D 25 ml+glucose 20% 7.5 ml) (MEM=minimum essential medium; FCS-D=decomplemented foetal calf serum). The culture medium is made up to 30 ml, stirred and placed at 400 μl per well. The medium is changed twice weekly for 18 days. The last replacement is effected 4 days prior to the treatment, with a medium without decomplemented foetal calf serum. (MEM 31.5 ml+glucose 20% 1.05 ml).\nTreatment takes place on the 18th or 19th day.\nEach well is washed with 750 μl of buffer (NaCl 124 mM, KCl 4.6 mM, CaCl2 1.2 mM, MgCl2 1.3 mM, KH2PO4 0.416 mM, NaHCO3 26.75 mM, glucose 10 mM; pH 7.4) for 10 min. The cells are incubated in the presence of xanthine (500 μM) and of the test product (from 0 to 1 mM). After 10 min, xanthine oxidase is added (50 mU/ml) and it is again left to incubate for 10 min. Release of radicals is stopped by washing 3 times with catalase (3000 U/ml). The glutamate is then recaptured in a solution of radioactive glutamate (^3H) at 40 μM (isotopic dilution 1/20000). Recapture is stopped by washing 3 times with the cold buffer. The cells are detached with soda 0.2N and the radioactivity is measured.\nFirstly we checked that the inhibition of recapture observed in the presence of X/XO is indeed due to a radical process. For this we replaced the test products with two enzymes: SOD (SuperOxide Dismutase) and catalase (FIG. 1). […] The Fenton reaction converting hydrogen peroxide to OH• is thus short-circuited. […] However, as there seems to be sufficient reducing agent in the medium to promote the formation of H2O2 starting from O2^•^−, it appears likely that a substantial proportion of H2O2 gives OH• (a highly reactive radical).\nFIGS. 3 to 8 are the mean of at least 4 independent tests in which the protective power of IC180, IC023, IC241, IC2-16, IC178, IC140, IC209, IC237, IC146, IC193, IC194, IC242, IC207, IC2-19, IC219, IC2-21, and IC249, as a function of the dose, was tested against a fixed concentration of radicals, and therefore of X/XO. In the case of IC180, the increase in recapture appears to be linear (up to 100% is found in some tests). […] Since IC023 alone only becomes “toxic” starting from 1 mM, the variation observed starting from 0.6 mM might reflect the existence of metabolites that are poorly tolerated by the cells. The derivative morpholine IC180 is more interesting."}, "xanthine oxidase": {"biological_target": "xanthine oxidase (Homo sapiens, UniProt P47989)", "sequence (P47989 whole entry, species assumed)": "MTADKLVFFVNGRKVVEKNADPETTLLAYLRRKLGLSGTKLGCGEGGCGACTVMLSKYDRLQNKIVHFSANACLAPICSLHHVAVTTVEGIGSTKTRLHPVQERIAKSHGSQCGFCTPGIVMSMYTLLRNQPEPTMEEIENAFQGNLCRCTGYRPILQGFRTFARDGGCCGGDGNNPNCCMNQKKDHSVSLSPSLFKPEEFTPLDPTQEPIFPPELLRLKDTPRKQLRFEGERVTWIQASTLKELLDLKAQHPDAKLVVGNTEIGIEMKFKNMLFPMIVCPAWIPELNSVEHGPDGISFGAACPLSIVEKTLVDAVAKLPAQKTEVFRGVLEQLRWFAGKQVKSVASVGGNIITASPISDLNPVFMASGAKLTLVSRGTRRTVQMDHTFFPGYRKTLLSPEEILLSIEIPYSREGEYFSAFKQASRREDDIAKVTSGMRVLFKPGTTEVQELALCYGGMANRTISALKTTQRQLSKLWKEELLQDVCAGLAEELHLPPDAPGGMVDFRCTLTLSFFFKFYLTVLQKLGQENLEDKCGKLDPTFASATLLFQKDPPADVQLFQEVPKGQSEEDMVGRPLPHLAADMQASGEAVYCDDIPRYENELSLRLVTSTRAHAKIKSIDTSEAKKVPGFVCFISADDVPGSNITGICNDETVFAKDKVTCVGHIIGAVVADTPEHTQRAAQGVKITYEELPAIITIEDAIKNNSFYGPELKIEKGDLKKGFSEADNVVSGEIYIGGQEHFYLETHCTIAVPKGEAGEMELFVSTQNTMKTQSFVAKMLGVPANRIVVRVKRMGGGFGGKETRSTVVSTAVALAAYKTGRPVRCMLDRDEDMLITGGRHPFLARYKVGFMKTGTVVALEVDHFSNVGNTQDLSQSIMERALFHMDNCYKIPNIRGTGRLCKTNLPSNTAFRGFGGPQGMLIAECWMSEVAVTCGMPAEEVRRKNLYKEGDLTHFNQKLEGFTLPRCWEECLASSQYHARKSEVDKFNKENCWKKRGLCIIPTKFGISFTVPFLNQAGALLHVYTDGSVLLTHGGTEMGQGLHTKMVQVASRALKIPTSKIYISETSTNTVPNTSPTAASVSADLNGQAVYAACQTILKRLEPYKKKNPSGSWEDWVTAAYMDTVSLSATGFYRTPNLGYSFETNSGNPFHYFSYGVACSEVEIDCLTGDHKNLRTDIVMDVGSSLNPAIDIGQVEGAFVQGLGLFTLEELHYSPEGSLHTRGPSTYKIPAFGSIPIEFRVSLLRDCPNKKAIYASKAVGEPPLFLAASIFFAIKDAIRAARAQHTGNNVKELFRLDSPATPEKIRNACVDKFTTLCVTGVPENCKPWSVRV", "assay": "Action of the derivatives on xanthine oxidase", "type": "biochemical", "method": "Action of the derivatives on xanthine oxidase:\n(Free Radical Biology & Medicine, Vol 20, No 1, pp.35-43, 1996)\n[…] of xanthine 20 mM in soda 0.1N and […] of the test product in phosphate buffer at pH 7.4 were placed in a final volume of 2 ml. Reaction is started by adding […] of solution of xanthine oxidase at 0.56 U/ml. Formation of […] is monitored by UV spectroscopy at 290 nm. Allopurinol is a reference inhibitor."}}, "data": [{"smiles": "c1cc2c(s1)CCCC2N1CCOCC1", "note": "(centres unmarked) [IC180, morpholine-4-tetrahydro-4,5,6,7-benzothiophene]", "values": [{"measurement": "ks (10^−9M^−1 sec^−1) (±SEM)", "setting": "[1]", "result": "3.75 ± 0.33 10^−9M^−1 sec^−1"}, {"measurement": "increase in recapture of glutamate, highest found", "setting": "astrocytes; fixed concentration of X/XO, dose-dependent, found in some tests", "result": "up to 100%"}, {"measurement": "effect of the product alone on recapture", "setting": "astrocytes; without the presence of X/XO", "result": "no effect on recapture"}, {"measurement": "inhibition at 100 µM", "setting": "xanthine oxidase; read-out: % inhibition 100 μM", "result": 0, "unit": "%"}, {"measurement": "inhibition at 500 µM", "setting": "xanthine oxidase; read-out: % inhibition 500 μM", "result": 2, "unit": "%"}]}]}
